Reference: patent US8629159B2, “Thiazolidinedione analogues” (Metabolic Solutions Development Company, LLC, priority 2006, dated 2014)
Marks after values point to notes of the source that are not given here.

Assays:
PPARγ = target: T1, PPARγ (Homo sapiens, UniProt P37231); assay: commercial PPARγ binding assay (Invitrogen; PPAR-LBD/Fluormone PPAR Green complex); details: for Binding to PPARγ (Fluormone displacement signal): mean of three experiments
T1 construct: purchased Invitrogen Corporation, Carlsbad, Calif
T1 sequence (P37231 238-503 limits assumed): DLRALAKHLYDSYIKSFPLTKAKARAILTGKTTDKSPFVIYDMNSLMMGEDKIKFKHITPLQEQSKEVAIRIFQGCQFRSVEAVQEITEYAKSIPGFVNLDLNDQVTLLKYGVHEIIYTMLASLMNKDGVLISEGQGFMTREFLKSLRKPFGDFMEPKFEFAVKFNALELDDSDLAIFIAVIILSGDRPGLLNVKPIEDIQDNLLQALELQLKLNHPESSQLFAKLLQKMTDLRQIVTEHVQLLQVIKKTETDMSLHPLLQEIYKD
Procedure: The ability of several exemplary compounds of the present invention, shown in Table A, to bind to PPARγ was measured using a commercial binding assay (Invitrogen Corporation, Carlsbad, Calif.) that measures the test compounds ability to bind with PPAR-LBD/Fluormone PPAR Green complex. These assays were performed on three occasions with each assay using four separate wells (quadruplicate) at each concentration of tested compound. The data are mean and SEM of the values obtained from the three experiments. […] Compounds were added at the concentrations shown, which range from 0.1-100 micromolar.

[1] = tested on: Male Dahl salt-sensitive rats; assay: Antihypertensive action in hypertensive Dahl salt-sensitive rats (high salt diet), mean blood pressure by direct femoral arterial cannulation; type: in vivo, rat
Procedure: Male Dahl salt-sensitive rats were made hypertensive by feeding of a high salt diet (4% salt) for 3 weeks and then treated daily with the indicated dose of hydrochlorothiazide (HCTZ), compound 1, or the combination of HCTZ and compound 1, as compared to the vehicle alone (1% carboxymethylcellulose/0.01% Tween 20) by oral gavage for 8 days. Mean blood pressure was measured by direct femoral arterial cannulation under fed conditions on day 7 and after a 6 hour fast on day 8.
Referring to FIG. 2 and Table C above, the antihypertensive action of compound 1 is additive with hydrocholothiazide (HCTZ). Data are mean and (SEM) mean blood pressure taken by direct cannulation. N=5; * p<0.05 less than blood pressure in HCTZ-treated rats.

male Sprague-Dawley rats = assay: Prevention of Medrol-induced hypertension, mean blood pressure by direct femoral arterial cannulation; type: in vivo, rat; details: hypertension generated by treatment with a glucocorticoid
Procedure: Hypertension was induced in normal male Sprague-Dawley rats by daily dosing with the glucocorticoid methylprednisolone (Medrol) for 8 days. Separate groups of rats received the vehicle (1% carboxymethylcellulose/0.01% Tween 20) by oral gavage and some of both the vehicle-treated and Medrol-treated rats also received daily doses of compound 1 as shown in Table D below. Mean blood pressure was measured by direct femoral arterial cannulation under fed conditions on day 7 and after a 6 hour fast on day 8. The data are mean and (SEM) mean blood pressure obtained by direct cannulation. N=9; * p<0.05 less than blood pressure in Medrol-treated rats.

[2] = tested on: Male salt-sensitive Dahl rats; assay: Fasting free fatty acids (FFA) and adiponectin in treated Dahl rats; type: in vivo, rat; details: 3 weeks treatment; 40 mg/kg compound 1, 20 mg/kg rosiglitazone
Procedure: Doses of these compounds were chosen to produce the same metabolic effects in terms of reduction of triglycerides and elevation of adiponectin (Table E). Direct blood pressure (systolic and diastolic) and heart rate was also measured by telemetry (Tables F—H and FIG. 4).

[3] = tested on: Male salt-sensitive Dahl rats; assay: Blood pressure (systolic and diastolic) and heart rate by telemetry in hypertensive Dahl rats; type: in vivo, rat; details: for Diastolic blood pressure measured by telemetry, Mean / Heart rate measured by telemetry, Mean / Systolic blood pressure measured by telemetry, Mean: 24 hour average
Procedure: Direct blood pressure (systolic and diastolic) and heart rate was also measured by telemetry (Tables F—H and FIG. 4). Data in Tables F—H and depicted in FIGS. 4A-4C are 24 hour averages for the last 4 days before the start of the daily oral gavage of treatments (−4, −3, −2, −1) and for the days 1-17 during the treatments shown.

[4] = day 1 of treatment, rosiglitazone 20 mg/kg, compound 1 40 mg/kg
[5] = day 2 of treatment, rosiglitazone 20 mg/kg, compound 1 40 mg/kg
[6] = day 3 of treatment, rosiglitazone 20 mg/kg, compound 1 40 mg/kg
[7] = day 4 of treatment, rosiglitazone 20 mg/kg, compound 1 40 mg/kg
[8] = day 5 of treatment, rosiglitazone 20 mg/kg, compound 1 40 mg/kg
[9] = day 6 of treatment, rosiglitazone 20 mg/kg, compound 1 40 mg/kg
[10] = day 7 of treatment, rosiglitazone 20 mg/kg, compound 1 40 mg/kg
[11] = day 8 of treatment, rosiglitazone 20 mg/kg, compound 1 40 mg/kg
[12] = day 9 of treatment, rosiglitazone 20 mg/kg, compound 1 40 mg/kg
[13] = day 10 of treatment, rosiglitazone 20 mg/kg, compound 1 40 mg/kg
[14] = day 11 of treatment, rosiglitazone 20 mg/kg, compound 1 40 mg/kg
[15] = day 12 of treatment, rosiglitazone 20 mg/kg, compound 1 40 mg/kg
[16] = day 13 of treatment, rosiglitazone 20 mg/kg, compound 1 40 mg/kg
[17] = day 14 of treatment, rosiglitazone 20 mg/kg, compound 1 40 mg/kg
[18] = day 15 of treatment, rosiglitazone 20 mg/kg, compound 1 40 mg/kg
[19] = day 16 of treatment, rosiglitazone 20 mg/kg, compound 1 40 mg/kg
[20] = day 17 of treatment, rosiglitazone 20 mg/kg, compound 1 40 mg/kg
[21] = day −1, before start of treatment
[22] = day −2, before start of treatment
[23] = day −3, before start of treatment
[24] = day −4, before start of treatment

CCc1ccc(C(=O)COc2ccc(CC3SC(=O)NC3=O)cc2)nc1 (centres unmarked) [Compound 1]
Binding to PPARγ (Fluormone displacement signal) (PPARγ; 1 μM compound): 223
Binding to PPARγ (Fluormone displacement signal) (PPARγ; 3 μM compound): 228
Binding to PPARγ (Fluormone displacement signal) (PPARγ; 10 μM compound): 207
Binding to PPARγ (Fluormone displacement signal) (PPARγ; 50 μM compound): 174
Binding to PPARγ (Fluormone displacement signal) (PPARγ; 100 μM compound): 170
Binding to PPARγ (Fluormone displacement signal) (PPARγ; .1 μM compound): 227
Binding to PPARγ (Fluormone displacement signal) (PPARγ; .3 μM compound): 232
binding to PPARγ (in words) (PPARγ; FIG. 1 and Table B): particularly poor binders
Mean blood pressure, Fasted ([1]; 6 hour fast, day 8, oral gavage daily, Compound 1 40 mg/kg/day, HCTZ 5 mg/kg/day): 151
antihypertensive action in combination with HCTZ (in words) ([1]; FIG. 2 and Table C): additive
Mean blood pressure, Fed ([1]; fed, day 7, oral gavage daily, Compound 1 40 mg/kg/day, HCTZ 5 mg/kg/day): 167
blood pressure lowering (in words) ([1]; hypertensive Dahl salt-sensitive rats): significantly lower blood pressure
blood pressure lowering (in words) (male Sprague-Dawley rats): significantly lowered blood pressure
Adiponectin [2]: 36*
FFA [2]: 0.70*
Diastolic blood pressure measured by telemetry, Mean [3, 4]: 119
Heart rate measured by telemetry, Mean [3, 4]: 420 bpm
Systolic blood pressure measured by telemetry, Mean [3, 4]: 167
Diastolic blood pressure measured by telemetry, Mean [3, 5]: 117
Heart rate measured by telemetry, Mean [3, 5]: 414 bpm
Systolic blood pressure measured by telemetry, Mean [3, 5]: 167
Diastolic blood pressure measured by telemetry, Mean [3, 6]: 120
Heart rate measured by telemetry, Mean [3, 6]: 406 bpm
Systolic blood pressure measured by telemetry, Mean [3, 6]: 171
Diastolic blood pressure measured by telemetry, Mean [3, 7]: 119
Heart rate measured by telemetry, Mean [3, 7]: 405 bpm
Systolic blood pressure measured by telemetry, Mean [3, 7]: 170
Diastolic blood pressure measured by telemetry, Mean [3, 8]: 122
Heart rate measured by telemetry, Mean [3, 8]: 400 bpm
Systolic blood pressure measured by telemetry, Mean [3, 8]: 173
Diastolic blood pressure measured by telemetry, Mean [3, 9]: 121
Heart rate measured by telemetry, Mean [3, 9]: 395 bpm
Systolic blood pressure measured by telemetry, Mean [3, 9]: 173
Diastolic blood pressure measured by telemetry, Mean [3, 10]: 125
Heart rate measured by telemetry, Mean [3, 10]: 389 bpm
Systolic blood pressure measured by telemetry, Mean [3, 10]: 176
Diastolic blood pressure measured by telemetry, Mean [3, 11]: 128
Heart rate measured by telemetry, Mean [3, 11]: 394 bpm
Systolic blood pressure measured by telemetry, Mean [3, 11]: 180
Diastolic blood pressure measured by telemetry, Mean [3, 12]: 129
Heart rate measured by telemetry, Mean [3, 12]: 388 bpm
Systolic blood pressure measured by telemetry, Mean [3, 12]: 182
Diastolic blood pressure measured by telemetry, Mean [3, 13]: 132
Heart rate measured by telemetry, Mean [3, 13]: 389 bpm
Systolic blood pressure measured by telemetry, Mean [3, 13]: 185
Diastolic blood pressure measured by telemetry, Mean [3, 14]: 132
Heart rate measured by telemetry, Mean [3, 14]: 389 bpm
Systolic blood pressure measured by telemetry, Mean [3, 14]: 184
Diastolic blood pressure measured by telemetry, Mean [3, 15]: 132
Heart rate measured by telemetry, Mean [3, 15]: 391 bpm
Systolic blood pressure measured by telemetry, Mean [3, 15]: 187
Diastolic blood pressure measured by telemetry, Mean [3, 16]: 135
Heart rate measured by telemetry, Mean [3, 16]: 388 bpm
Systolic blood pressure measured by telemetry, Mean [3, 16]: 189
Diastolic blood pressure measured by telemetry, Mean [3, 17]: 135
Heart rate measured by telemetry, Mean [3, 17]: 385 bpm
Systolic blood pressure measured by telemetry, Mean [3, 17]: 192
Diastolic blood pressure measured by telemetry, Mean [3, 18]: 137
Heart rate measured by telemetry, Mean [3, 18]: 390 bpm
Systolic blood pressure measured by telemetry, Mean [3, 18]: 193
Diastolic blood pressure measured by telemetry, Mean [3, 19]: 138
Heart rate measured by telemetry, Mean [3, 19]: 389 bpm
Systolic blood pressure measured by telemetry, Mean [3, 19]: 197
Diastolic blood pressure measured by telemetry, Mean [3, 20]: 141
Heart rate measured by telemetry, Mean [3, 20]: 388 bpm
Systolic blood pressure measured by telemetry, Mean [3, 20]: 195
Diastolic blood pressure measured by telemetry, Mean [3, 21]: 125
Heart rate measured by telemetry, Mean [3, 21]: 393 bpm
Systolic blood pressure measured by telemetry, Mean [3, 21]: 173
Diastolic blood pressure measured by telemetry, Mean [3, 22]: 127
Heart rate measured by telemetry, Mean [3, 22]: 398 bpm
Systolic blood pressure measured by telemetry, Mean [3, 22]: 175
Diastolic blood pressure measured by telemetry, Mean [3, 23]: 123
Heart rate measured by telemetry, Mean [3, 23]: 400 bpm
Systolic blood pressure measured by telemetry, Mean [3, 23]: 170
Diastolic blood pressure measured by telemetry, Mean [3, 24]: 124
Heart rate measured by telemetry, Mean [3, 24]: 406 bpm
Systolic blood pressure measured by telemetry, Mean [3, 24]: 171
effect on heart rate (in words) ([3]; telemetry, Tables F-H): reducing heart rate
reduction of blood pressure compared with rosiglitazone (in words) ([3]; telemetry, Tables F-H): more effective in reducing blood pressure
